Data from patent publication US20240270762A1, “PENICILLIN-BINDING PROTEIN INHIBITORS” (priority 2021, published 2024).
≈ marks a conversion by molar mass, not a printed value. Read-outs that look alike come from different tables or passages of the source.

Key:
A. baumannii PBP1a = biological target: T1, A. baumannii PBP1a (Acinetobacter baumannii, UniProt A0ABX6CK30); experiment: Bocillin-FL competition binding via gel filtration, A. baumannii PBP1a; settings: competition binding assay using Bocillin-FL via gel filtration; read-out: A. baumannii PBP1a Potency
T1 sequence (A0ABX6CK30 1-851): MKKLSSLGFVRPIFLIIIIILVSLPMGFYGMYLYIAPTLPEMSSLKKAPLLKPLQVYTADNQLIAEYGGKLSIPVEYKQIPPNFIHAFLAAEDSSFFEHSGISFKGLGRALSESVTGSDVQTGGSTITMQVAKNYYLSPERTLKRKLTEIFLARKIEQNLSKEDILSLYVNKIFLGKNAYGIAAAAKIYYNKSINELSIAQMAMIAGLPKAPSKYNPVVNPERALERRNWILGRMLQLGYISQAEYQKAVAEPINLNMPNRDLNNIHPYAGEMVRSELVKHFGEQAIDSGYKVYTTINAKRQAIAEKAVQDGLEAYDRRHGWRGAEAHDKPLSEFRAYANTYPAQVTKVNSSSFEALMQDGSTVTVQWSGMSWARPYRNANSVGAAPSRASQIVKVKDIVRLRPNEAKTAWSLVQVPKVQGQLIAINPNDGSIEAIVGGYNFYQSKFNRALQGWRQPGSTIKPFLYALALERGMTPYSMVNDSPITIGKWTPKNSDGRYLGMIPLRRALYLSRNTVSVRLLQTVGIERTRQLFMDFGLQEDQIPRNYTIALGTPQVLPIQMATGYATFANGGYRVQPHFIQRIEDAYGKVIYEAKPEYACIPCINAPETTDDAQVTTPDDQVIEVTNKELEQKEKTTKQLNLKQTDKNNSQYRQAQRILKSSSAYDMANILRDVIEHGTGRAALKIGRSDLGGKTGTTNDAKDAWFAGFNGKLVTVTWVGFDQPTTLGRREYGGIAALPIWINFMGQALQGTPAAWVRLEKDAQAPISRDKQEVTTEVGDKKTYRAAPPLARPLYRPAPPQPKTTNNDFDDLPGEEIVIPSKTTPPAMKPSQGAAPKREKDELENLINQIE
How it was run: (§1)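 Enzyme was pre-incubated with rising inhibitor concentrations, then Bocillin-FL was added and incubated 15 minutes more. Bound probe was separated by gel filtration and fluorescence read. EC50 came from fitting fraction of PBP labelled versus inhibitor concentration to a Hill equation with ymin, ymax and n.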

A. baumannii PBP2 = A. baumannii PBP2 (Acinetobacter baumannii, UniProt D0C8Z9); experiment: Bocillin-FL competition binding via gel filtration, A. baumannii PBP2
How it was run: as §1

P. aeruginosa ATCC 27853 = experiment: microbe, parasite or virus in culture; format: cell-based; settings: Pseudomonas aeruginosa, ATCC27853, read-out: Minimum inhibitory concentration, P. aeruginosa ATCC 27853
[1] = tested on: P. aeruginosa (ΔmexAB-oprM); experiment: Broth microdilution MIC in iron-depleted CAMHB (IDM); format: cell-based; settings: Pseudomonas aeruginosa; iron-depleted CAMHB (IDM); […]; read-out: Minimum inhibitory concentration, P. aeruginosa ΔmexAB-oprM
P. aeruginosa CDC-0054 = experiment: microbe, parasite or virus in culture; format: cell-based; settings: Pseudomonas aeruginosa, CDC0054, read-out: Minimum inhibitory concentration, P. aeruginosa CDC-0054
P. aeruginosa CDC-0090 = experiment: microbe, parasite or virus in culture; format: cell-based; settings: Pseudomonas aeruginosa, CDC0090, read-out: Minimum inhibitory concentration, P. aeruginosa CDC-0090
A. baumannii 1258916 = experiment: microbe, parasite or virus in culture; format: cell-based, Acinetobacter baumannii
A. baumannii CDC-0045 = experiment: microbe, parasite or virus in culture; format: cell-based; settings: Acinetobacter baumannii
[2] = tested on: B. humptydooensis ATCC BAA-2767; experiment: microbe, parasite or virus in culture; format: cell-based; settings: Burkholderia humptydooensis, ATCCBAA2767, read-out: Minimum inhibitory concentration (MIC), B. humptydooensis ATCC BAA-2767
[3] = Acinetobacter baumannii, 1258916, read-out: Minimum inhibitory concentration (MIC), A. baumannii 1258916
[4] = CDC0045, read-out: Minimum inhibitory concentration (MIC), A. baumannii CDC-0045
[5] = Acinetobacter baumannii, 1258916, read-out: MIC, A. baumannii 1258916
[6] = CDC0045, read-out: MIC, A. baumannii CDC-0045

Chain of A. baumannii PBP2 (D0C8Z9 whole entry): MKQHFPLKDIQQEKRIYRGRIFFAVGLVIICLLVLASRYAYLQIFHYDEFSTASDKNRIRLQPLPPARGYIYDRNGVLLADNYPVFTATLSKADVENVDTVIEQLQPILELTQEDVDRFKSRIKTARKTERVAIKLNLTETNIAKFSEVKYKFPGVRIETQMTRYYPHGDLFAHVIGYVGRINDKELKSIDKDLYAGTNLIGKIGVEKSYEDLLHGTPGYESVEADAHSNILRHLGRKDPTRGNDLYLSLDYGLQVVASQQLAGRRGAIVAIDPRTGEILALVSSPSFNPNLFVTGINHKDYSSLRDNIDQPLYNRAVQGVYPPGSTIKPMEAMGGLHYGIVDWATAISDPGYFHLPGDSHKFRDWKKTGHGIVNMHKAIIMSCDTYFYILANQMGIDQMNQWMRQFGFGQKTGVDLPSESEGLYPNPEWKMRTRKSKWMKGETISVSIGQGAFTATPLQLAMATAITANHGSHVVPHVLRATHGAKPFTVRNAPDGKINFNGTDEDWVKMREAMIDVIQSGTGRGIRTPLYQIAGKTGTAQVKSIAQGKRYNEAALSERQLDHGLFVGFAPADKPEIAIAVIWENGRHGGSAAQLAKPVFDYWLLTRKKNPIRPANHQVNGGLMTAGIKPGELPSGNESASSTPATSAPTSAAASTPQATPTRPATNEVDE

| Structure (SMILES) | EC50 (A. baumannii PBP1a) [µM] | EC50 (A. baumannii PBP2) [µM] | MIC (P. aeruginosa ATCC 27853) [mg/L] | MIC [1] [mg/L] | MIC (P. aeruginosa CDC-0054) [mg/L] | MIC (P. aeruginosa CDC-0090) [mg/L] | MIC (A. baumannii 1258916; [3]) [mg/L] | MIC (A. baumannii CDC-0045; [4]) [mg/L] | MIC [2] [mg/L] | MIC (A. baumannii 1258916; [5]) [mg/L] | MIC (A. baumannii CDC-0045; [6]) [mg/L] |
| --- | --- | --- | --- | --- | --- | --- | --- | --- | --- | --- | --- |
| O=C(NCCN1CCN(C(=O)N[C@@H](C(=O)N[C@H]2Cc3ccc(F)c(C(=O)O)c3OB2O)c2ccc(P(=O)(O)O)cc2)C(=O)C1=O)c1ccc(O)c(O)c1Cl [Example 503, (R)-3-((R)-2-(4-(2-(2-chloro-3,4-dihydroxybenzamido)ethyl)-2,3-dioxopiperazine-1-carboxamido)-2-(4-phosphonophenyl)acetamido)-7-fluoro-2-hydroxy-3,4-dihydro-2H-benzo[e][1,2]oxaborinine-8-carboxylic acid] | 10 to 50 | 10 to 50 | < 1 | < 1 | < 1 | < 1 | < 1 | 2 to 4 (≈ 2.53 to 5.05 µM) | < 1 | – | – |
| O=C(O)c1c(F)ccc2c1OB(O)[C@@H](NC(=O)[C@H](NC(=O)N1CCN(C3CCN(C(=O)Nc4ccc(O)c(O)c4Cl)CC3)C1=O)c1ccc(P(=O)(O)O)cc1)C2 (single isomer, unassigned) [Example 497] | < 10 | < 10 | 2 to 4 (≈ 2.44 to 4.88 µM) | < 1 | < 1 | 8 to 16 (≈ 9.77 to 19.5 µM) | < 1 | < 1 | < 1 | – | – |
| O=C(O)c1c(F)ccc2c1OB(O)[C@@H](NC(=O)[C@H](NC(=O)N1CCN(Cc3ccc(O)c(O)c3Cl)C(=O)C1=O)c1cc(F)c(P(=O)(O)O)c(F)c1)C2 [Example 502, (R)-3-((R)-2-(4-(2-chloro-3,4-dihydroxybenzyl)-2,3-dioxopiperazine-1-carboxamido)-2-(3,5-difluoro-4-phosphonophenyl)acetamido)-7-fluoro-2-hydroxy-3,4-dihydro-2H-benzo[e][1,2]oxaborinine-8-carboxylic acid] | 10 to 50 | < 10 | < 1 | < 1 | < 1 | < 1 | < 1 | < 1 | < 1 | – | – |
| O=C(O)c1c(F)ccc2c1OB(O)[C@@H](NC(=O)C(NC(=O)N1CCN(C3CCN(C(=O)Nc4cc(O)cc(Cl)c4)CC3)C(=O)C1=O)c1cc(F)c(O)c(O)c1Cl)C2 (stereo partly drawn) [Example 484, (3R)-3-(2-(2-chloro-5-fluoro-3,4-dihydroxyphenyl)-2-(4-(1-((3-chloro-5-hydroxyphenyl)carbamoyl)piperidin-4-yl)-2,3-dioxopiperazine-1-carboxamido)acetamido)-7-fluoro-2-hydroxy-3,4-dihydro-2H-benzo[e][1,2]oxaborinine-8-carboxylic acid] | < 10 | < 10 | 2 to 4 (≈ 2.39 to 4.79 µM) | < 1 | 2 to 4 (≈ 2.39 to 4.79 µM) | 2 to 4 (≈ 2.39 to 4.79 µM) | – | – | > 128 | < 1 | < 1 |
| O=C(O)c1c(F)ccc2c1OB(O)[C@@H](NC(=O)[C@H](NC(=O)N1CCN(C3CCN(C(=O)c4cc(O)c(O)c(Cl)c4)CC3)C1=O)c1ccc(P(=O)(O)O)cc1)C2 [Example 496, (R)-3-((R)-2-(3-(1-(3-chloro-4,5-dihydroxybenzoyl)piperidin-4-yl)-2-oxoimidazolidine-1-carboxamido)-2-(4-phosphonophenyl)acetamido)-7-fluoro-2-hydroxy-3,4-dihydro-2H-benzo[e][1,2]oxaborinine-8-carboxylic acid] | < 10 | < 10 | < 1 | < 1 | < 1 | < 1 | < 1 | < 1 | < 1 | – | – |
| O=C(O)c1c(F)ccc2c1OB(O)[C@@H](NC(=O)[C@H](NC(=O)N1CCN(C3CCN(C(=O)c4cc(F)c(O)c(O)c4Cl)CC3)C1=O)c1ccc(P(=O)(O)O)cc1)C2 (single isomer, unassigned) [Example 495] | < 10 | < 10 | < 1 | < 1 | < 1 | < 1 | < 1 | < 1 | < 1 | – | – |
| O=C(O)c1c(F)ccc2c1OB(O)[C@@H](NC(=O)[C@H](NC(=O)N1CCN(C3CCN(C(=O)Nc4cc(F)c(F)c(O)c4F)CC3)C(=O)C1=O)c1cc(F)c(O)c(O)c1Cl)C2 [Example 491, (R)-3-((R)-2-(2-chloro-5-fluoro-3,4-dihydroxyphenyl)-2-(2,3-dioxo-4-(1-((2,4,5-trifluoro-3-hydroxyphenyl)carbamoyl)piperidin-4-yl)piperazine-1-carboxamido)acetamido)-7-fluoro-2-hydroxy-3,4-dihydro-2H-benzo[e][1,2]oxaborinine-8-carboxylic acid] | < 10 | < 10 | 2 to 4 (≈ 2.34 to 4.68 µM) | < 1 | < 1 | 2 to 4 (≈ 2.34 to 4.68 µM) | < 1 | < 1 | 8 to 16 (≈ 9.36 to 18.7 µM) | – | – |
| O=C(O)c1c(F)ccc2c1OB(O)[C@@H](NC(=O)[C@H](NC(=O)N1CCN(C3CCN(C(=O)c4cccc(O)c4F)CC3)C1=O)c1cc(F)c(O)c(O)c1Cl)C2 (single isomer, unassigned) [Example 431] | < 10 | < 10 | < 1 | < 1 | < 1 | < 1 | – | – | < 1 | < 1 | < 1 |
| O=C(O)c1c(F)ccc2c1OB(O)[C@@H](NC(=O)C(NC(=O)N1CCN(C3CCN(S(=O)(=O)Cc4cccc(O)c4)CC3)C(=O)C1=O)c1cc(F)c(O)c(O)c1Cl)C2 (stereo partly drawn) [Example 485, (3R)-3-(2-(2-chloro-5-fluoro-3,4-dihydroxyphenyl)-2-(4-(1-((3-hydroxybenzyl)sulfonyl)piperidin-4-yl)-2,3-dioxopiperazine-1-carboxamido)acetamido)-7-fluoro-2-hydroxy-3,4-dihydro-2H-benzo[e][1,2]oxaborinine-8-carboxylic acid] | < 10 | < 10 | 2 to 4 (≈ 2.39 to 4.78 µM) | < 1 | < 1 | < 1 | – | – | 2 to 4 (≈ 2.39 to 4.78 µM) | < 1 | < 1 |
| O=C(O)c1c(F)ccc2c1OB(O)[C@@H](NC(=O)C(NC(=O)N1CCN(C3CCN(C(=O)Nc4ccc(F)c(O)c4)CC3)C(=O)C1=O)c1cc(F)c(O)c(O)c1Cl)C2 (stereo partly drawn) [Example 480, (3R)-3-(2-(2-chloro-5-fluoro-3,4-dihydroxyphenyl)-2-(4-(1-((4-fluoro-3-hydroxyphenyl)carbamoyl)piperidin-4-yl)-2,3-dioxopiperazine-1-carboxamido)acetamido)-7-fluoro-2-hydroxy-3,4-dihydro-2H-benzo[e][1,2]oxaborinine-8-carboxylic acid] | < 10 | 10 to 50 | 2 to 4 (≈ 2.44 to 4.88 µM) | < 1 | < 1 | 2 to 4 (≈ 2.44 to 4.88 µM) | – | – | 8 to 16 (≈ 9.77 to 19.5 µM) | < 1 | < 1 |
| O=C(O)c1c(F)ccc2c1OB(O)[C@@H](NC(=O)[C@H](NC(=O)N1CCN(C3CCN(C(=O)c4ccc(F)c(O)c4)CC3)C1=O)c1cc(F)c(O)c(O)c1Cl)C2 (single isomer, unassigned) [Example 435] | < 10 | < 10 | < 1 | < 1 | < 1 | < 1 | – | – | < 1 | < 1 | < 1 |
